Measurements taken from patent US11591288B2, “Compositions and methods for treating atherosclerotic cardiovascular disease” (GAVISH-GALILEE BIO APPLICATIONS LTD., priority 2017, dated 2023).
Where two headings read alike, the source gives them in different places.

Tests used:
J774A.1 macrophages [1] = test: APOA1-mediated cholesterol efflux from macrophage cells; format: cell-based, murine
Method: J774A.1 cells were incubated for 4 h with RPMI buffer (media), APOA1 (10 μg) preincubated with DMSO or with lyso-DGTS (at final concentration of 10, 20, 50, and 100 μg/ml) for 2 h. Fluorescence was measured in media and cells at excitation/emission 482/515 nm. The cholesterol efflux was expressed as % efflux elicited by cells. Each experiment was repeated separately at least three times. *p<0.05, ***p<0.0001 relative to the control (APOA1 incubated with DMSO; n=3). Statistical analysis by one-way ANOVA and Graphpad prism 5 software.
APOA1 was incubated with lyso-DGTS at different concentrations (0, 10, 20, 50, and 100 μg/ml), and its ability to remove cholesterol from J774A.1 macrophages was measured by fluorometric assay (cell-based Cholesterol Efflux Fluorometric Assay Kit) and expressed as % of cholesterol efflux.

APOA1 = APOA1 (Homo sapiens, UniProt P02647); test: APOA1-lyso-DGTS interaction, Trp fluorescence quenching; format: binding; conditions: for Kd: read-out: Binding constant Ka, lyso-DGTS-APOA1 (converted)
Method: The Trp-fluorescence-quenching method was further used to examine the interaction between lyso-DGTS and APOA1, the major protein component of HDL. Ka and thermodynamic parameters were also calculated (Table 6). […] The values obtained for n were not affected by temperature and were equal to=1 (Table 6).
The thermodynamic parameters: enthalpy (ΔH), entropy (ΔS), and free energy (ΔG) were calculated to characterize the APOA1-lyso-DGTS interaction type.

rePON1 [2] = test: rePON1 lactonase activity (dihydrocoumarin assay) after incubation with lyso-DGTS; format: biochemical; conditions: for rePON1 lactonase activity: 2 h incubation, 37° C., 3.00 units without lyso-DGTS
Method: (§1) To 200 μl of rePON1 solution (5 μg/ml) in Tris-HCl buffer pH=8.4 was added 1 μl of lyso-DGTS dissolved in dimethyl sulfoxide (DMSO) to a final concentration of 1, 5, 10, 50, and 100 μg/ml. 1 μl DMSO was added to the control rePON1 solution. The mixtures were incubated at 37° C. for 2, 4, 24 or 48 h.
10 μl from each solution were taken to a UV 96-well microplate containing 90 μl Tris-HCL buffer pH=8.4 with 1 mM CaCl2 (activity buffer) in each well. Then 100 μl dihydrocoumarin, 2 mM in the activity buffer was added (prepared from a stock of 100 mM dihydrocoumarin in DMSO). Dihydrocoumarine hydrolysis rate was measured at 270 nm, once in 25 seconds for 15 minutes, using SpectraMax M2 Reader. Non-enzymatic hydrolysis of dihydrocoumarin was subtracted from the total rate of hydrolysis. One unit of lactonase activity was equal to the hydrolysis of 1 μmol of dihydrocoumarin/min.
(§2) The effect of lyso-DGTS on lactonase and arylesterase activities of rePON1 was examined. rePON1 (5 μg/ml in Tris buffer pH=8.4) was incubated with different concentrations of lyso-DGTS for 2, 4, 24, and 48 h at 37° C., and its lactonase and aryesterase activities were measured using dihydrocoumarin and phenyl acetate assays, respectively.

rePON1 [3] = test: rePON1 arylesterase activity (phenyl acetate assay) after incubation with lyso-DGTS; format: biochemical; conditions: 0-100 μg/ml lyso-DGTS, 2 or 4 h, 37° C.
Method: as §1
10 μl from each solution were taken to a UV 96-well microplate wells containing 90 μl Tris-HCL buffer pH=8.4 with 1 mM CaCl2 (activity buffer). Then 100 μl phenyl acetate, 2 mM in the activity buffer was added (prepared from a stock of 100 mM phenyl acetate in DMSO). Phenyl acetate hydrolysis rate was measured at 270 nm, once in 25 seconds, for 15 minutes using SpectraMax M2 Reader. One unit of esterase activity was equal to the hydrolysis of 1 μmol of phenyl acetate/min. Lactonase and esterase unit activity were calculated by the following equation: Unit=slope (mOD/min)×5(per ml)×666.7(dilution)/700. Human Serum PON1 Lactonase Activity
as §2

J774A.1 macrophages [4] = test: HDL-mediated cholesterol efflux from macrophage cells; format: cell-based, murine; conditions: 16.5% without lyso-DGTS
Method: Cholesterol efflux Fluorometric Assay Kit (Cell-Based), Biovision was used to measure the effect of lyso-DGTS on HDL-cholesterol efflux.
J774.1 macrophage cells were grown in RPMI 1640 media containing 10% FBS in cell culture flask till ˜90% confluence (37° C. incubator containing 5% CO2). The cells were splitted under sterile conditions using basic cell culture techniques and plate to approximately 1×10^5 cells/well in a 96-well plate (white plate with clear bottom) using 100 μl media/well. After 2 h, the cells attached to the plates, washed with RPMI 1640 media (no serum added) and labeled with 50 μl labeling reagent and 50 μl equilibration buffer, supplied by the kit, for 16 h. 100 μl equilibration buffer alone were added to the background control for measuring background fluorescence. The cells were washed with media and treated for another 4-6 h with 100 μl of RPMI 1640 media containing HDL (25 μg protein) preincubated with lyso-DGTS at various concentrations (0, 10, 20, 50, and 100 μg/ml) for 4 h. To the negative control was added RPMI 1640 media alone.
The fluorescence of the supernatant was measured (excitation/emission=482/515 nm). The cells were solubilized adding 100 μl of Cell Lysis Buffer and shaking on a plate shaker for 30 min at room temperature, and its fluorescence was also measured.
Cholesterol efflux of the treatments was calculated by dividing the fluorescence intensity of the media by total fluorescence intensity of the cell lysate of the same treatment and media.
HDL removes cholesterol from cells, including macrophages. HDL particles were incubated with lyso-DGTS at different concentrations. The HDL ability to efflux cholesterol from J774A.1 macrophages was measured using flouromtric assay (cell-based cholesterol efflux flouromtric assay kit, supplied by Biovision) and expressed as % of cholesterol efflux. […] The cholesterol removal enhanced from 16.5% (without lyso-DGTS) to 22.5%, 31.5%, 36.5%, and 46.5% after incubation with lyso-DGTS at 10, 20, 50, and 100 μg/ml, respectively (FIG. 8).

Sequence of APOA1 (P02647 19-267, species assumed): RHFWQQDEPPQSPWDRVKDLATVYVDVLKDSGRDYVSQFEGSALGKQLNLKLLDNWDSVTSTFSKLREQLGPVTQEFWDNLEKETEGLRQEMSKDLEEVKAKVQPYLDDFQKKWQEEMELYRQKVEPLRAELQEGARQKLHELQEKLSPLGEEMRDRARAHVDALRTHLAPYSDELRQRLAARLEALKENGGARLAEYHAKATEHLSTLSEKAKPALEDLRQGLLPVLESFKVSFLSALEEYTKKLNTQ

With CC/C=C\C/C=C\C/C=C\C/C=C\C/C=C\CCCC(=O)OCC(O)COCCC(C(=O)[O-])[N+](C)(C)C (centres unmarked) [lyso-DGTS, lyso-diacylglyceryltrimethylhornmoserine] the APOA1-mediated cholesterol efflux (J774A.1 macrophages [1]; APOA1+50 μg/ml lyso-DGTS, p<0.05) was ~25%, the APOA1-mediated cholesterol efflux (J774A.1 macrophages [1]; APOA1+100 μg/ml lyso-DGTS, p<0.0001) was ~35% and the “number of binding sites (n), lyso-DGTS-APOA1” value (APOA1; 298 K) was 1.01 ± 0.05. For the same compound, the “ΔG, lyso-DGTS-APOA1 interaction” value (APOA1; 298 K) was -1.09 kcal/mol, the Kd (APOA1; 298 K (25° C.)) was 422 µM and the “number of binding sites (n), lyso-DGTS-APOA1” value (APOA1; 310 K) was 1.23 ± 0.05. The “ΔG, lyso-DGTS-APOA1 interaction” value (APOA1; 310 K) was -1.464 kcal/mol, the Kd (APOA1; 310 K (37° C.)) was 43.9 µM and the “ΔH, lyso-DGTS-APOA1 interaction” value (APOA1; from 298 and 310 K) was 8.243 kcal/mol. For the same compound, the “ΔS, lyso-DGTS-APOA1 interaction” value (APOA1; from 298 and 310 K) was 131.126 J/mol K, the rePON1 lactonase activity (rePON1 [2]; 1 μg/ml lyso-DGTS) was 4.05 units and the “rePON1 lactonase activity preserved after incubation for 48 h” value (“rePON1 lactonase activity preserved” for short) (rePON1 [2]; 1 μg/ml lyso-DGTS) was 9%. For the same compound, the rePON1 lactonase activity (rePON1 [2]; 5 μg/ml lyso-DGTS) was 5.73 units, the “rePON1 lactonase activity preserved” value (rePON1 [2]; 5 μg/ml lyso-DGTS) was 33% and the rePON1 lactonase activity (rePON1 [2]; 10 μg/ml lyso-DGTS) was 8.10 units. For the same compound, the “rePON1 lactonase activity preserved” value (rePON1 [2]; 10 μg/ml lyso-DGTS) was 49%, the rePON1 lactonase activity (rePON1 [2]; 50 μg/ml lyso-DGTS) was 11.61 units and the “rePON1 lactonase activity preserved” value (rePON1 [2]; 50 μg/ml lyso-DGTS) was 69%. For the same compound, the rePON1 lactonase activity (rePON1 [2]; 100 μg/ml lyso-DGTS) was 12.7 units, the “rePON1 lactonase activity preserved” value (rePON1 [2]; 100 μg/ml lyso-DGTS) was 66% and the “time for which rePON1 lactonase activity is stabilized and preserved” value (rePON1 [2]; in buffer solution, abolished after 48 h without lyso-DGTS) was “at least 48 h”. For the same compound, the “effect on rePON1 arylesterase activity” value (rePON1 [3]) was “increases rePON1 lactonase and arylesterase activities in a dose and time dependent manner”, the HDL-mediated cholesterol efflux (J774A.1 macrophages [4]; HDL incubated with 10 μg/ml lyso-DGTS) was 22.5% and the HDL-mediated cholesterol efflux (J774A.1 macrophages [4]; HDL incubated with 20 μg/ml lyso-DGTS) was 31.5%. It also gave an HDL-mediated cholesterol efflux (J774A.1 macrophages [4]; HDL incubated with 50 μg/ml lyso-DGTS) of 36.5% and an HDL-mediated cholesterol efflux (J774A.1 macrophages [4]; HDL incubated with 100 μg/ml lyso-DGTS) of 46.5%.
